# How the values were obtained:
# ragweed [1] = assay: Test A postemergence; assay type: in vivo, Ambrosia artemisiifolia
# Method in brief: (§1)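 Loam/sand soil; pre-em directed soil spray at planting, post-em spray at 1–2 leaf (2–10 cm). Compound in non-phytotoxic solvent + surfactant. Greenhouse 10 d; visual injury vs untreated, 0 = no effect, 100 = complete control.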
# blackgrass [2] = assay: Test A postemergence; assay type: in vivo, Alopecurus myosuroides
# Method in brief: as §1
# kochia [3] = assay: Test A preemergence; assay type: in vivo, Bassia scoparia
# Method in brief: as §1
# pigweed, palmer [4] = assay: Test A postemergence; assay type: in vivo, Amaranthus palmeri
# Method in brief: as §1
# galium = assay: Test A postemergence; assay type: in vivo, Galium aparine
# Method in brief: as §1
# barnyardgrass [5] = assay: Test A postemergence; assay type: in vivo, Echinochloa crusgalli; settings: 1000 g ai/ha, Postemergence; 0 to 100 scale
# Text: (§2) Seeds of plant species selected from barnyardgrass (Echinochloa crusgalli), blackgrass (Alopecurus myosuroides), corn (Zea mays), foxtail, giant (giant foxtail, Setaria faberi), goosegrass (Eleusine indica), kochia (Bassia scoparia), oat, wild (wild oat, Avena fatua), pigweed, palmer (palmer amaranth, palmer pigweed, Amaranthus palmeri), Pigweed, Redroot (redroot pigweed, Amaranthus retroflexus), ragweed (common ragweed, Ambrosia artemisiifolia), ryegrass, Italian (italian ryegrass, Lolium multiflorum), soybean (Glycine max), and wheat (Triticum aestivum) were planted into a blend of loam soil and sand and treated preemergence with a directed soil spray using test chemicals formulated in a non-phytotoxic solvent mixture which included a surfactant. At the same time, plants selected from these crops and weed species and also galium (catchweed bedstraw, Galium aparine) and horseweed (Erigeron canadensis) were planted in pots containing the same blend of loam soil and sand and treated with postemergence applications of test chemicals formulated in the same manner. Plants ranged in height from 2 to 10 cm and were in the one- to two-leaf stage for the postemergence treatment. Treated plants and untreated controls were maintained in a greenhouse for 10 days, after which time all treated plants were compared to untreated controls and visually evaluated for injury. Plant response ratings, summarized in Table A, are based on a 0 to 100 scale where 0 is no effect and 100 is complete control. A dash (-) response means no test result.
# foxtail, giant [6] = assay: Test A postemergence; assay type: in vivo, Setaria faberi
# Method in brief: as §1
# pigweed, palmer [7] = assay: Test A preemergence; assay type: in vivo, Amaranthus palmeri
# Method in brief: as §1
# barnyardgrass [8] = assay: Test A preemergence; assay type: in vivo, Echinochloa crusgalli; settings: 1000 g ai/ha, 0 to 100 scale (0 no effect, 100 complete control), 10 days
# Text: as §2
# ryegrass, Italian [9] = assay: Test A preemergence; assay type: in vivo, Lolium multiflorum
# Method in brief: as §1
# foxtail, giant [10] = assay: Test A preemergence; assay type: in vivo, Setaria faberi
# Method in brief: as §1
# blackgrass [11] = assay: Test A preemergence; assay type: in vivo, Alopecurus myosuroides
# Method in brief: as §1
# horseweed = assay: Test A postemergence; assay type: in vivo, Erigeron canadensis
# Method in brief: as §1
# ryegrass, Italian [12] = assay: Test A postemergence; assay type: in vivo, Lolium multiflorum
# Method in brief: as §1
# kochia [13] = assay: Test A postemergence; assay type: in vivo, Bassia scoparia
# Method in brief: as §1
# ragweed [14] = assay: Test A preemergence; assay type: in vivo, Ambrosia artemisiifolia
# Method in brief: as §1
# goosegrass [15] = assay: Test A postemergence; assay type: in vivo, Eleusine indica; settings: postemergence, 10 days
# Method in brief: as §1
# ducksalad = assay: Test B flooded paddy test; assay type: in vivo, Heteranthera limosa; settings: 250 g ai/ha, Flood, 13 days, 0 to 100 scale (0 no effect, 100 complete control)
# Method in brief: (§3)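 Visual scores from 0 (no effect) to 100 (complete kill) were assigned 13 days after treatment by comparison with controls. Seedlings had been treated at two leaves by adding compound to floodwater standing 3 cm deep, kept at that level in the greenhouse.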
# corn [16] = assay: Test A postemergence; assay type: in vivo, Zea mays; settings: postemergence, 10 days
# Method in brief: as §1
# corn [17] = assay: Test A preemergence; assay type: in vivo, Zea mays; settings: visual injury after 10 days, 0 to 100 scale, 0 is no effect, 100 is complete control
# Method in brief: as §1
# oat, wild [18] = assay: Test A postemergence; assay type: in vivo, Avena fatua; settings: postemergence, 10 days
# Method in brief: as §1
# goosegrass [19] = assay: Test A preemergence; assay type: in vivo, Eleusine indica; settings: visual injury after 10 days, 0 to 100 scale, 0 is no effect, 100 is complete control
# Method in brief: as §1
# sedge, umbrella = assay: Test B flooded paddy test; assay type: in vivo, Cyperus difformis; settings: 250 g ai/ha, Flood, 13 days, 0 to 100 scale (0 no effect, 100 complete control)
# Method in brief: as §3
# barnyardgrass [20] = assay: Test B flooded paddy test; assay type: in vivo, Echinochloa crus-galli; settings: 250 g ai/ha, Flood, 13 days, 0 to 100 scale (0 no effect, 100 complete control)
# Method in brief: as §3
# soybean [21] = assay: Test A preemergence; assay type: in vivo, Glycine max; settings: visual injury after 10 days, 0 to 100 scale, 0 is no effect, 100 is complete control
# Method in brief: as §1
# wheat [22] = assay: Test A preemergence; assay type: in vivo, Triticum aestivum; settings: visual injury after 10 days, 0 to 100 scale, 0 is no effect, 100 is complete control
# Method in brief: as §1
# soybean [23] = assay: Test A postemergence; assay type: in vivo, Glycine max; settings: postemergence, 10 days
# Method in brief: as §1
# rice = assay: Test B flooded paddy test; assay type: in vivo, Oryza sativa; settings: 250 g ai/ha, Flood, 13 days, 0 to 100 scale (0 no effect, 100 complete control)
# Method in brief: as §3
# wheat [24] = assay: Test A postemergence; assay type: in vivo, Triticum aestivum; settings: postemergence, 10 days
# Method in brief: as §1
# oat, wild [25] = assay: Test A preemergence; assay type: in vivo, Avena fatua; settings: visual injury after 10 days, 0 to 100 scale, 0 is no effect, 100 is complete control
# Method in brief: as §1
# [26] = 1000 g ai/ha, Postemergence, 0 to 100 scale
# [27] = 1000 g ai/ha, 0 to 100 scale (0 no effect, 100 complete control), 10 days
# [28] = 125 g ai/ha, postemergence, 10 days, 0 to 100 scale, 0 no effect, 100 complete control
# [29] = 500 g ai/ha, postemergence, 10 days, visual injury, 0 to 100 scale (0 no effect, 100 complete control)
# [30] = 125 g ai/ha, 0 to 100 scale, 0 no effect, 100 complete control
# [31] = 500 g ai/ha, visual injury, 0 to 100 scale (0 no effect, 100 complete control)
# [32] = 125 g ai/ha, visual injury after 10 days, 0 to 100 scale, 0 is no effect, 100 is complete control
# [33] = 500 g ai/ha, visual injury after 10 days, 0 to 100 scale, 0 is no effect, 100 is complete control
compound,measurement,setting,value
Cc1cccc2c1O[C@@H](C)CN2C(=O)c1cccc(-n2cc(F)cn2)c1 [Compound 131],"Plant response rating, Ragweed",ragweed [1]; [26],0
same,"Plant response rating, Blackgrass",blackgrass [2]; [26],0
same,"Plant response rating, Kochia",kochia [3]; [27],0
same,"Plant response rating, Pigweed, Palmer","pigweed, palmer [4]; [26]",0
same,"Plant response rating, Galium",galium; [26],20
same,"Plant response rating, Barnyardgrass",barnyardgrass [5],10
same,"Plant response rating, Foxtail, Giant","foxtail, giant [6]; [26]",10
same,"Plant response rating, Pigweed, Palmer","pigweed, palmer [7]; [27]",0
same,"Plant response rating, Barnyardgrass",barnyardgrass [8],10
same,"Plant response rating, Ryegrass, Italian","ryegrass, Italian [9]; [27]",60
same,"Plant response rating, Foxtail, Giant","foxtail, giant [10]; [27]",60
same,"Plant response rating, Blackgrass",blackgrass [11]; [27],10
same,"Plant response rating, Horseweed",horseweed; [26],0
same,"Plant response rating, Ryegrass, Italian","ryegrass, Italian [12]; [26]",0
same,"Plant response rating, Kochia",kochia [13]; [26],40
same,"Plant response rating, Ragweed",ragweed [14]; [27],0
Cc1cccc2c1O[C@@H](C)CN2C(=O)c1cccc(-n2cc(C#N)cn2)c1 [Compound 134],"Plant response rating, Ragweed",ragweed [1]; [26],0
same,"Plant response rating, Blackgrass",blackgrass [2]; [26],0
same,"Plant response rating, Kochia",kochia [3]; [27],20
same,"Plant response rating, Pigweed, Palmer","pigweed, palmer [4]; [26]",30
same,"Plant response rating, Galium",galium; [26],20
same,"Plant response rating, Barnyardgrass",barnyardgrass [5],10
same,"Plant response rating, Foxtail, Giant","foxtail, giant [6]; [26]",50
same,"Plant response rating, Pigweed, Palmer","pigweed, palmer [7]; [27]",90
same,"Plant response rating, Barnyardgrass",barnyardgrass [8],30
same,"Plant response rating, Ryegrass, Italian","ryegrass, Italian [9]; [27]",80
same,"Plant response rating, Foxtail, Giant","foxtail, giant [10]; [27]",70
same,"Plant response rating, Blackgrass",blackgrass [11]; [27],40
same,"Plant response rating, Horseweed",horseweed; [26],0
same,"Plant response rating, Ryegrass, Italian","ryegrass, Italian [12]; [26]",20
same,"Plant response rating, Kochia",kochia [13]; [26],50
same,"Plant response rating, Ragweed",ragweed [14]; [27],50
Cc1cccc2c1O[C@@H](C)CN2C(=O)c1cccc(-n2cnn(C(C)C)c2=O)c1 [Compound 118],Ragweed plant response rating,ragweed [1]; [28],0
same,"Plant response rating, Ragweed",ragweed [1]; [29],30
same,Blackgrass plant response rating,blackgrass [2]; [28],0
same,"Plant response rating, Blackgrass",blackgrass [2]; [29],70
same,Goosegrass plant response rating,goosegrass [15]; [30],20
same,"Plant response rating, Goosegrass",goosegrass [15]; [31],40
same,"Plant response rating, Kochia",kochia [3]; [32],0
same,"Plant response rating, Kochia",kochia [3]; [33],70
same,"Plant response rating, Ducksalad",ducksalad,0
same,"Pigweed, Palmer plant response rating","pigweed, palmer [4]; [28]",0
same,"Plant response rating, Pigweed, Palmer","pigweed, palmer [4]; [29]",20
same,Corn plant response rating,corn [16]; [30],0
same,"Plant response rating, Corn",corn [16]; [31],70
same,Galium plant response rating,galium; [28],10
same,"Plant response rating, Galium",galium; [29],30
same,"Foxtail, Giant plant response rating","foxtail, giant [6]; [28]",10
same,"Plant response rating, Foxtail, Giant","foxtail, giant [6]; [29]",50
same,"Plant response rating, Corn",corn [17]; 125 g ai/ha,0
same,"Plant response rating, Corn",corn [17]; 500 g ai/ha,30
same,"Oat, Wild plant response rating","oat, wild [18]; [30]",10
same,"Plant response rating, Oat, Wild","oat, wild [18]; [31]",90
same,"Plant response rating, Pigweed, Palmer","pigweed, palmer [7]; [32]",40
same,"Plant response rating, Pigweed, Palmer","pigweed, palmer [7]; [33]",100
same,"Plant response rating, Goosegrass",goosegrass [19]; 125 g ai/ha,90
same,"Plant response rating, Goosegrass",goosegrass [19]; 500 g ai/ha,100
same,"Plant response rating, Ryegrass, Italian","ryegrass, Italian [9]; [32]",70
same,"Plant response rating, Ryegrass, Italian","ryegrass, Italian [9]; [33]",100
same,"Plant response rating, Sedge, Umbrella","sedge, umbrella",0
same,"Plant response rating, Foxtail, Giant","foxtail, giant [10]; [32]",20
same,"Plant response rating, Foxtail, Giant","foxtail, giant [10]; [33]",100
same,"Plant response rating, Barnyardgrass",barnyardgrass [20],0
same,"Plant response rating, Soybean",soybean [21]; 125 g ai/ha,40
same,"Plant response rating, Soybean",soybean [21]; 500 g ai/ha,60
same,"Plant response rating, Wheat",wheat [22]; 125 g ai/ha,0
same,"Plant response rating, Wheat",wheat [22]; 500 g ai/ha,30
same,Soybean plant response rating,soybean [23]; [30],40
same,"Plant response rating, Soybean",soybean [23]; [31],80
same,"Plant response rating, Rice",rice,0
same,"Plant response rating, Blackgrass",blackgrass [11]; [32],20
same,"Plant response rating, Blackgrass",blackgrass [11]; [33],70
same,Wheat plant response rating,wheat [24]; [30],10
same,"Plant response rating, Wheat",wheat [24]; [31],30
same,"Plant response rating, Oat, Wild","oat, wild [25]; 125 g ai/ha",30
same,"Plant response rating, Oat, Wild","oat, wild [25]; 500 g ai/ha",90
same,Horseweed plant response rating,horseweed; [28],0
same,"Plant response rating, Horseweed",horseweed; [29],0
same,"Ryegrass, Italian plant response rating","ryegrass, Italian [12]; [28]",10
same,"Plant response rating, Ryegrass, Italian","ryegrass, Italian [12]; [29]",60
same,Kochia plant response rating,kochia [13]; [28],30
same,"Plant response rating, Kochia",kochia [13]; [29],80
same,"Plant response rating, Ragweed",ragweed [14]; [32],0
same,"Plant response rating, Ragweed",ragweed [14]; [33],30

# Source: US20260262643A1, “HERBICIDAL BENZOXAZINES” (FMC CORPORATION, priority 2022, published 2026)
